Experimental data reported in patent US10350228B2, “Treatment of sickle cell disease and inflammatory conditions” (Seattle Genetics, Inc., priority 2012, dated 2019).
Entries after “also recorded” stand apart in the source; their conditions may differ.

Assays:
white blood cells = experiment: White blood cell counts in sickle cell mice; type: in vivo, NY1DD sickle cell mice; conditions: 7 days
Procedure: (§1) NY1DD sickle cell mice were given plain water or 20 or 100 mM 2-fluorofucose in their drinking water ad libitum for 7 days. The treatment and control group had four mice per treatment group. On day 7, the mice were sacrificed with CO2. An EDTA blood sample was collected from the heart and the liver was removed and frozen in liquid nitrogen. Total white blood cell counts and differentials were performed by manual counting using a hemocytometer and Wright-stained blood smears, respectively. Nuclear extracts were prepared from nuclei isolated from liver homogenates. Western blots of the nuclear extracts were immunostained with antibodies to NF-κB phospho-p65 a marker of NF-κB activation.

blood neutrophils = experiment: Blood neutrophil counts in treated mice; type: in vivo, Balb/c mice; conditions: 10 or 100 mM in drinking water, day 21
Procedure: (§2) Female Balb/c mice were given oral 2-fluorofucose in their drinking water (10 mM, 100 mM, n=3/group) or left untreated. Mice remained on the 2-fluorofucose-containing water through day 21 when blood was collected. Pre-dose bleeds were collected for baseline comparison. Total white cells/μL blood were determined by hemacytometer using Turk's solution (0.01% gentian violet in 3% acetic acid) to exclude red blood cells. RBCs were eliminated from the remainder of the blood by osmotic lysis for flow cytometric analysis. Cells were incubated with anti-Gr-1-FITC antibodies (BD Biosciences) to identify neutrophils, and a recombinant P-selectin-human Fc fusion protein (R&D Systems) or a recombinant E-selectin-human Fc fusion protein. Cells were washed and then incubated with a PE-labeled goat anti-human IgG-Fc secondary antibody (Jackson Immunoresearch) to detect bound P-selectin or E-selectin. Samples were collected on a FACSCalibur flow cytometer and analyzed using CellQuest software. The percentage of Gr-1+ cells was determined and absolute number of neutrophils was calculated using the total white cell number from the hemacytometer count. In addition, flow samples were gated for Gr-1+ cells to assess P-selectin or E-selectin binding to neutrophils by histogram analysis. The geometric mean of the P-selectin or E-selectin fluorescent signal was determined from the histogram. […]

NF-κB phospho-p65 = experiment: Western blot of NF-κB phospho-p65 in liver nuclear extracts of sickle cell mice; type: in vivo, NY1DD sickle cell mice; conditions: 7 days
Procedure: as §1

E-selectin [1] = experiment: E-selectin binding to neutrophils from treated mice (flow cytometry); type: in vivo, Balb/c mice; conditions: 10 or 100 mM in drinking water, day 21
Procedure: as §2

E-selectin [2] = experiment: Adhesion of LS174T cells to immobilized E-selectin; type: cell-based; conditions: cells cultured with 100 μM for 10 days; adhesion at 4° C.
Procedure: LS174T cells (ATCC) were cultured in MEM-Eagle with 10% FBS with or without 100 μM 2-fluorofucose for 10 days. For adhesion to purified E-selectin, non-tissue culture treated 96-well clear bottom black culture plates were coated with E-selectin-Fc chimera (5 μg/mL, PBS) and controls with 3% BSA/PBS, 2 hr at 37° C., then overnight at 4° C. Wells were washed two times with PBS and blocked with 3% BSA/PBS (2 hr, room temperature). LS174T cells were harvested and washed with PBS 2 times, labeled with 5 μM Calcein-AM in serum-free medium (15 min), and washed with DBPS two times. Cells in DPBS (100 μL) of were added to each well and the plate was kept at 4° C. for 2 hr. Plates were read at 480 nm excitation and 520 nm emission (total cell reading) and then washed with DPBS four times, followed by fluorescent analysis.

[3] = system: antibody core fucosylation; experiment: Inhibition of antibody core fucosylation by fucose analogs; type: cell-based
Description: Methods of determining whether a fucose analog is capable of having an effect on antibody core fucosylation is provided in WO 2012/019165.

NY1DD sickle cell mice = experiment: Hemoglobin-induced vascular stasis in dorsal skin fold chamber venules; type: in vivo; conditions: 20 mM in drinking water 7 days
Procedure: NY1DD sickle cell mice were given plain water or 20 or 100 mM 2-fluorofucose in their drinking water ad libitum for 7 days. On day 4, dorsal skin fold chambers were implanted onto the mice (n=4). On day 7, flowing venules in the dorsal skin-fold chamber window were selected and mapped using intravital microscopy. Thereafter, the mice were infused via the tail vein with human stroma-free hemoglobin (0.32 μmols heme/kg), a known inducer of vascular stasis in SCD mice. At 1 and 4 hours after infusion the same venules were re-examined and the percentage of vessels that had become static (no flow) was recorded. A control group of NY1DD mice (n=3) with implanted dorsal skin-fold chambers was given water to drink and injected intraperitoneally with hemin (40 μmols/kg×3 days) a known inhibitor of vascular stasis

activated HUVEC cells = experiment: Adhesion of LS174T cells to TNFα-activated HUVEC cells; type: cell-based; conditions: cells cultured with 100 μM for 10 days; adhesion at 4° C.
Procedure: For adhesion to activated HUVEC cells, non-tissue culture treated 96-well clear bottom black culture plates were coated with attachment factor (100 μL/well), 30 min at room temperature. Wells were aspirated and HUVECs were added to half of the wells (40,000 cells/200 μL cell culture medium) while 3% BSA/PBS was added to the remaining control wells (100 μL) and the plate was incubated overnight at 37° C., 5% CO2. The confluent HUVEC cells were then treated with TNFα (20 ng/mL in PBS) for 4 hr at 37° C. Meanwhile tumor cells were labeled with Calcein-AM as described. The wells of the 96-well plate were all aspirated and seeded with 2-fluorofucose-treated or untreated labeled LS174T cells (500000 cells/well) and the plate was kept at 4° C. for 2 hr. Plates were read at 480 nm excitation and 520 nm emission (total cell reading) and then washed with DPBS four times, followed by fluorescent analysis. (see FIG. 4; The numeral 1 refers to 2-fluorofucose).

P-selectin = P-selectin binding to neutrophils from treated mice (flow cytometry); type: in vivo, Balb/c mice; conditions: 10 or 100 mM in drinking water, day 21
Procedure: as §2

C[C@H](O)[C@@H](O)[C@@H](O)[C@H](F)C=O [2-fluorofucose, 2-deoxy-2-fluorofucose]
White blood cells counts (mean+SD) (white blood cells; 20 mM in drinking water): 22.1+5.2 K/μL | White blood cells counts (mean+SD) (white blood cells; 100 mM in drinking water): 34.2+7.2 K/μL | blood neutrophil counts (blood neutrophils): significantly increased | Nuclear NF-κB phospho-p65 in liver (NF-κB phospho-p65; 20 mM in drinking water): partially diminished | Nuclear NF-κB phospho-p65 in liver (NF-κB phospho-p65; 100 mM in drinking water): markedly decreased | E-selectin binding to neutrophils (E-selectin [1]): loss | adhesion of LS174T cells to immobilized E-selectin (E-selectin [2]): decreased adhesion; also recorded: diminished adhesion to selectins | inhibition at 50 µM ([3]; Table 2, 50 μM analog, read-out: Inhibition at 50 μM): > 80% | inhibition at 1000 µM ([3]; Table 2, 1 mM analog): > 80% | percent static venules (vascular stasis) (NY1DD sickle cell mice; 1 hour after hemoglobin infusion): partially inhibited stasis; also recorded: partially diminished | percent static venules (vascular stasis) (NY1DD sickle cell mice; 4 hours after hemoglobin infusion): partially inhibited stasis; also recorded: partially diminished | adhesion of LS174T cells to HUVEC cells activated with TNFα (activated HUVEC cells): decreased adhesion | P-selectin binding to neutrophils (P-selectin): dimished and loss
